Measurements from patent US11841361B2, “Microfluidic proximal tubule kidney-on-chip” (EMULATE, INC., priority 2019, dated 2023).

Assays:
[1] = tested on: proximal tubular epithelium; assay: Nephrotoxicity testing in Proximal Tubule Kidney-Chip; assay type: cell-based, human
[2] = tested on: PT Kidney-Chip; assay: Barrier function: inulin leakage in PT Kidney-Chip; assay type: in vitro ADME, human; details: inulin added to apical channel
[3] = Material absorption into Kidney-Chip and perfusion manifold materials; assay type: physicochemical; details: REGM serum-free medium; 1-72 hr; glass control
Excerpt: In some embodiments, Material Absorption is one exemplary readout. When testing compounds added to a PT Kidney Chip, a determination of material absorption is made for that compound. The following is a exemplary method for determining material adsorption of a compound.
Study Conditions. Study approach: Each experiment includes a number of controls and test conditions. These allow us to tease out: Adsorption to the vial/well-plate. Absorption vs. adsorption to the tested material.
• 1. Dissolve the small molecule in an aqueous phase (medium) and incubate it with the tested material. • 2. Measure the concentration of small molecule remaining in the aqueous phase (using mass spec, plate reader). • 3. Curve-fit the measured data to quantify the absorption and diffusion parameters.

[4] = tested on: Proximal Tubule Kidney-Chip; assay: Creatinine and PAH secretion/transport in PT Kidney-Chip; assay type: in vitro ADME, human; details: for mass balance: compound loss (inlet/outlet) in chip system / active transport (B-A versus A-B transport): S1 and HS chips; for active transport (B-A versus A-B transport): Day 8 and Day 15
Procedure: (§1) To measure creatinine secretion in the Proximal Tubule Kidney-Chip, the vascular compartment is perfused with medium containing 1 mg/dL of human creatinine, while the secretion of creatinine in the top channel is measured from chip effluent. Exemplary assay flow rate (Proximal Tubule Kidney-Chip) during this assays is 60 μL/hour. In some embodiments, samples of effluent are collected in outlet reservoirs of the module. In preferred embodiments, there is no dilution of effluent when using an exemplary commercial kit, e.g. Invitrogen™ Creatine Urinary Detection Kit (Thermo Fisher EIACUN as described at thermofisher.com, downloaded Jun. 20, 2019).
(§2) In some embodiments, creatinine transport is determined in relation to chip configuration and low vs. high flow. Creatinine Secretion: Creatinine Loss (BI-BO); Creatinine filtration (TO/BO); Apical Creatinine (TO).
(§3) After activation, S1 (tall channel) chips and high shear chips are coated with Emulate ECM (i.e. Col IV+ Matrigel) on the side of the membrane (typically the top channel) intended for seeding with PT Kidney Cells. For monocultures, proximal tubular cells are seeded into the channel with the ECM coated membrane. For co-culturing PT Kidney Cells (system), glomerular microvascular endothelial cells are seeded on bottom channel and incubated for overnight. The following day, proximal tubular cells are seeded into the top channel (where the membrane is coated with ECM) and cultured for 2 days under static conditions, i.e. no fluid flow. Chips will be connected to a culture module at day 3 along with starting flow at 150 ul/h for both channels. Media should be replenished daily. At day 7, PAH and Creatinine will be dosed Apically under a 150 ul/h flow rate then A to B transport will be measured. Initial collection (after 2 hours) will be discard and during the following 22 hours effluent fluid (media) will be collected at desired times for measurements. At day 8, PAH and Creatinine will then be dosed Basally at 150 ul/h flow rate and B to A transport will be measured. Initial collection during 2 hours will be discarded and over the following 22 hours, the media will be collected for measurement. At day 9, the chip will be return to culture mode and cultured for additional […]. At day 14 PAH and Creatinine will be dosed Apically at 150 ul/h flow rate and A to B transport will be measured. Initial collection (2 hours) will be discard and during the following 22 hours the media will be collected for measurement. At day 15, PAH and Creatinine will be dosed Basally at 150 ul/h flow rate and B to A transport will be measured. Initial collection during 2 hours will be discarded and the following 22 hours, the media will be collected for measurement.

[5] = in vitro; details: human
Procedure: (§4) Additional transporter Tier 1 test substrates/substances include but are not limited to: 1. […] TEA; 4. PAH; 5. Estrone-3-sulfate (E3S); 6. Glycylsarcosine. In some embodiments, microfluidic devices are treated with a substance followed by a 30 minute flushing cycle. In some embodiments, microfluidic devices under go 100 ul/hr of flow during transported function measurements.
(§5) Permeability from the vascular (V) to luminal (L) direction (Papp(V−L)) and permeability from the luminal to vascular direction (Papp(L−V)) were determined along with calculating the efflux ratio (Papp(V−L)/PapP(L−V)). […] However, the values were included in the calculations to calculate the efflux ratio.

[6] = Prediction of clearance versus clinical values; details: proximal tubule Kidney chip
[7] = Creatinine and PAH secretion/transport in PT Kidney-Chip; assay type: in vitro ADME, human; details: human, Proximal Tubule Kidney-Chip; read-out: recovery of compound in the chip
Procedure: as §1, §2, §3

[8] = tested on: P-gp (digoxin); MATE1/MATE2-K (metformin); OAT1 (PAH); assay: in vitro
[9] = tested on: Proximal Tubule Kidney-Chip; assay: Efflux ratio / permeability of probe substrates in Proximal Tubule Kidney-Chip
Procedure: as §4, §5

[10] = tested on: OCT1/MATE1/MATE2-K; assay: in vitro; details: human, Kidney-Chip (Proximal Tubule), probe TEA
Excerpt: (§6) Substrates for transporters are termed “victim”.

[11] = tested on: OCT2/MATE1/MATE2-K; assay: in vitro; details: human, Kidney-Chip (Proximal Tubule), probe Meformin (so in the source); metformin)
Excerpt: as §6

[12] = tested on: Transwell kidney cell cultures; assay: Efflux ratio of probe substrates in Transwell cultures; details: no inhibitor

Gentamicin
LDH in medium effluent ([1]; 10 mM, 48 hours): significant increase | N-acetyl-beta-(D)-glucosaminidase activity (NAG) in medium effluent ([1]; 10 mM, 48 hours): significant increases | TUNEL assay ([1]; 10 mM, 48 hours): significant DNA damage | active caspase-3 in cells lysates ([1]; 10 mM, 48 hours): increase | microscopic analysis of the proximal tubular epithelium ([1]; 10 mM, 48 hours): structural damage | reactive oxygen species (ROS) ([1]; 10 mM, 48 hours): significant increases | Morphology ([1]; dosing at Day 7 for 24 h, Gentamicin 10 mM, Cisplatin 100 μM): Damaged

inulin
Inulin leakage into the basal channel [2]: no significant inulin leakage

CCCCC(=O)N(Cc1ccc(-c2ccccc2-c2nnn[nH]2)cc1)[C@H](C(=O)O)C(C)C [Valsartan]
absorption into system materials (chip material, perfusion manifold material) [3]: Minimal absorption

CCCN(CCC)S(=O)(=O)c1ccc(C(=O)O)cc1 [Probenecid]
reduction of creatinine secretion ([4]; S1 chip, inhibitor incubated 3 hours, trend, statistically not significant): 10%

Nc1ncnc2c1ncn2CCOCP(=O)(O)O [Adefovir]
efflux ratio ([5]; Kidney-Chip Efflux Ratio): 2.01 | predicted clearance value as % of clinical value [6]: 85%

Nc1ccc(C(=O)NCC(=O)O)cc1 [PAH, p-aminohippuric acid]
efflux ratio ([5]; Kidney-Chip Efflux Ratio): 4.84 | efflux ratio ([5]; efflux ratio): 2.4 to 2.7 | recovery [7]: ~100% | mass balance: compound loss (inlet/outlet) in chip system [4]: No significant PAH loss | active transport (B-A versus A-B transport) [4]: significant active transport | PAH loss (BI-BO) ([4]; bottom channel): 20 to 40 µg/mL | PHA transport (TO/BO) ([4]; low flow): about 20% | efflux ratio [8]: 1.37 | predicted clearance value as % of clinical value [6]: 72%

C[C@]12CC[C@@H]3c4ccc(OS(=O)(=O)O)cc4CC[C@H]3[C@@H]1CCC2=O [Estrone-3-sulfate]
absorption into system materials (chip material, perfusion manifold material) [3]: Minimal absorption

C[C@H]1O[C@@H](O[C@H]2[C@@H](O)C[C@H](O[C@H]3[C@@H](O)C[C@H](O[C@H]4CC[C@@]5(C)[C@H](CC[C@@H]6[C@@H]5C[C@@H](O)[C@]5(C)[C@@H](C7=CC(=O)OC7)CC[C@]65O)C4)O[C@@H]3C)O[C@@H]2C)C[C@H](O)[C@@H]1O [Digoxin]
absorption into system materials (chip material, perfusion manifold material) [3]: Minimal absorption

CN(C)C(=N)N=C(N)N [Metformin]
efflux from the vascular channel to the luminal channel ([9]; day 8, S1 chip, 30 μL/hr, time-dependent): significant efflux

CC[C@@]1(O)C(=O)OCc2c1cc1n(c2=O)Cc2cc3c(CN(C)C)c(O)ccc3nc2-1 [Topotecan]
absorption into system materials (chip material, perfusion manifold material) [3]: Minimal absorption

CN/C(=N/CCSCc1nc[nH]c1C)NC#N [Cimetidine]
IC50 [10]: 3.16 µM | IC50 [11]: 4.41 µM | reduction of PAH secretion ([4]; S1 chip, trend, statistically not significant): 10%

CC[N+](CC)(CC)CC [TEA, Tetraethylammonium]
Kidney-Chip Efflux Ratio ([9]; no inhibitor): 6.95+/−0.60 | efflux ratio ([9]; transport studies comparing different flow rates, conditions tested): > 2 | Transwell Efflux Ratio [12]: 1.11+/−0.06

CN1CC(=O)NC1=N [Creatinine, 2-amino-1-methyl-5H-imadazol-4-one]
recovery [7]: ~100% | mass balance: compound loss (inlet/outlet) in chip system [4]: No significant creatinine loss | active transport (B-A versus A-B transport) [4]: significant active transport | Creatinine loss (BI-BO) ([4]; bottom channel): 2.5 to 4 mM | creatinine filtration (TO/BO) ([4]; low flow): About 50%
